Consider one compound from US4536400A, “Phosphonoformic acid esters” (priority 1977, dated 1985).

The nature of the data set: Acid stability test in 0.1 N HCl (t.l.c. estimate of decomposition products). The data set is classed as physicochemical. The settings on record: incubated in 0.1 N HCl at 37° C. for 2 hours; 100 μg compound applied. The protocol:
The acid stability was investigated by dissolving 5 mg of each compound in 1 ml of 0.1 N HCl in a test tube. For use as references 0.2 ml of each solution was withdrawn, immediately treated with 0.2 ml of a 10% aqueous solution of NaHCO3 and frozen. The remaining 0.8 ml of each solution was incubated at 37° C. for 2 hours. After incubation, 0.8 ml of a 10% aqueous solution of NaHCO3 was added to each solution and the solutions were frozen. The incubated compounds and the reference compounds were lyophilized to dryness and redissolved in distilled H2 O, 0.2 ml and 1.0 ml respectively, for each reference solution and incubated solution. The solutions were applied to silica gel (Merck PF254, 20×20 cm) and polyethylene imine (Macherey-Nagel PEI, 20×20 cm) thin layer plates. A total of 20 μl of the reference solutions (100 μg compound) and 25 μl of the incubated solutions ([…]) were applied. To each plate was also added, as references, solutions of phosphorous acid (H2 HPO3) (5 and 20 μg) and of trisodiumphosphonoformate (5 and 20 μg). (Decomposition of phosphonoformic acid at low pH produces phosphorous acid).
The silica gel plates were prepared in duplicate and eluted with a solution composed of methanol--10% aq ammonia--trichloroacetic acid--water (50--15--5--3, v/v) and the polyethylene imine plates were eluted with a 1M aq lithium chloride solution. […]

On to `O=C(O)P(=O)(O)O` [EHB 776, trisodium phosphonoformate], for which the “Estimated formation of phosphorous acid” value is 20 µg.
